Test results: patent US20190255011A1, “INHIBITION OF TUMOUR CELL MIGRATION” (GW Pharma Limited, priority 2004, published 2019)

Assays:
[1] = test system: U87 human glioma cell line; conditions: cited from earlier work
[2] = test system: U373 human glioma cell line; conditions: cited from earlier work
[3] = test system: U87 human glioma cells subcutaneously implanted to nude mice; conditions: cited from earlier work
U87 human glioma cells [4] = test: cell viability at the concentrations used in the migration assay; format: cell-based; conditions: range of CBD concentrations used (0.01 μM to 9 μM)
U87 human glioma cells [5] = test: cell migration assay in modified Boyden chamber; format: cell-based
Description: Cannabidiol (CBD) in the form of a botanical drug substance was dissolved in ethanol to a concentration of 100 mM this was stored at −20° C. until required.
Before use the CBD was further diluted with tissue culture medium to the desired concentration, ensuring that the concentration of ethanol was below 0.001%.
U87 human glioma cells were used throughout this experiment. The cells were maintained at 37° C. in a humidified atmosphere with 5% CO2 and 95% air.
Cells were cultured in a 75 cm^2 culture flask in Dulbecco's Modified Eagle Medium (DMEM), which had been supplemented with 4 mM L-glutamine, 100 units/ml penicillin, […], 1% sodium pyruvate, 1% non-essential amino acids and 10% heat-inactivated fetal bovine serum.
A cell migration assay was undertaken with the U87 cells in a 48 well, modified Boyden chamber in which upper and lower compartments were separated by a polycarbonate filter with a pore diameter of 8 μm coated with 15 μg/ml of fibronectin. Conditioned medium (CM) served as a chemoattractant. The CM was made by incubating a subconfluent culture of U87 cells with complete medium for 3 days.
The coated filter was placed over the bottom chamber, which contained the conditioned medium. Serum-free medium was used as a negative control.
U87 cells were treated with either CBD or vehicle for 30 minutes and then seeded in the upper chamber at a concentration of 3×10^4 cells per well and incubated for 6 hours at 37° C.
After the incubation the non-migrated cells on the upper surface of the filter were removed by scraping and the migrated cells on the lower side of the filter were stained with Diff-Quick Stain. Between 5 and 8 unit fields per filter were counted at 400× magnification.
As is shown in FIG. 1 cells were exposed to an increased concentration of CBD in a range starting from 0.01 μM to 9 μM and their migration was evaluated after 6 hours. The degree of inhibition of cell migration is expressed as a percentage of inhibition versus vehicle treatment (maximal stimulation).

U87 human glioma cells [6] = test: cell migration assay with pre-treatment by CB1 and CB2 receptor antagonists; format: cell-based; conditions: antagonist 0.1 μM and 1 μM, 30 minutes pre-treatment, then CBD 6 μM
Description: In order to determine whether the CBD-induced inhibition of cell migration as described in Example 1 above was dependant on the stimulation of these receptors the cell migration assay was performed with specific antagonists selective to CB1 and CB2 receptors. These are SR141716A and SR144528 respectively.
U87 human glioma cells were firstly pre-treated with the antagonists for 30 minutes and then treated with the CBD for an additional 30 minutes before seeding in the upper chamber of the Boyden chamber.
The cell migration assay was performed using a CBD concentration of 6 μM (shown in Example 1 to inhibit 50% migration. The CB1 and CB2 receptor antagonists were tested at concentrations of 0.1 μM and 1 μM, at these concentrations cell viability was not affected.

| Molecule | anti-proliferative effects in-vitro [1] | anti-proliferative effects in-vitro [2] | anti-proliferative effects in-vivo [3] | cell viability (U87 human glioma cells [4]) | inhibition of migration (U87 human glioma cells [5]; CBD added to culture medium of U87 cells) | inhibition at 6 µM (U87 human glioma cells [5]; Homo sapiens, Glioma cell, CBD concentration of 6 μM) | IC50 (U87 human glioma cells [5]; Homo sapiens, U-87 MG, U87 cells, CBD 0.01 μM to 9 μM, migration evaluated after 6 hours, versus vehicle treatment, read-out: IC50 of inhibition of cell migration) | effect of antagonist pre-treatment on CBD-induced inhibition of migration (U87 human glioma cells [6]) |
| --- | --- | --- | --- | --- | --- | --- | --- | --- |
| C=C(C)[C@@H]1CCC(C)=C[C@H]1c1c(O)cc(CCCCC)cc1O [CBD, cannabidiol] | anti-proliferative effects | anti-proliferative effects | anti-proliferative effects | did not alter cell viability | concentration-dependant inhibition of migration | 50% | 5.05 ± 1.1 µM |  |
| SR144528 |  |  |  |  |  |  |  | not prevented |
| Cc1c(C(=O)NN2CCCCC2)nn(-c2ccc(Cl)cc2Cl)c1-c1ccc(Cl)cc1 [SR141716] |  |  |  |  |  |  |  | not prevented |
